# In US8563583B2, “Pyridone analogs useful as melanin concentrating hormone receptor-1 antagonists” (Bristol-Myers Squibb Company, priority 2009, dated 2013):
# Counter-ions that a name gives are not always drawn.
# Tested on: SPRAGUE DAWLEY® rats
# Assay: Assessment of in vivo MCHR1 activity: weight change in rats given a choice of chow and high fat/high sucrose diet
# Parameters: species or system rat
# Details: 30 mg/kg p.o. daily for four days
# Procedure: Male SPRAGUE DAWLEY® (CD, Charles River Breeding Laboratory) rats weighing approximately 240 grams were placed in individual plastic cages with ALPHADRI® bedding. The room was maintained at 72° F. and 50% humidity, and a 12/12 light dark cycle with lights out at 1600 hours. The rats were conditioned for 5 days prior to the start of the study to having a choice of foods.
# Baseline body weight was measured prior to drug treatment on day 0 of the study. Baseline food consumption was the average of the 3 days prior to the first drug treatment. Drug was administered daily p.o. at 2.0 ml/kg at 1500 hours beginning on day 0 and continuing daily through day 4 as a suspension in 0.5% methyl cellulose, 0.1% Tween 80 in water at 3.0, 10 and 30 mg/kg p.o. All data were evaluated using ANOVA and Fishers PLSD statistics.
row,SMILES,% Weight change versus Control after daily Administration of drug at 30 mg/kg for four days
1,"COc1cc(-n2ccc(COc3ccc(Cl)cc3)cc2=O)ccc1OCC(C)(C)OC(=O)CN [Example P-1, 1-(4-(4-((4-Chlorophenoxy)methyl)-2-oxopyridin-1(2H)-yl)-2-methoxyphenoxy)-2-methylpropan-2-yl 2-aminoacetate hydrochloride]",3.4%
2,COc1cc(-n2ccc(OCc3ccc(Cl)cc3)cc2=O)ccc1OCC(C)(C)OC(=O)CN [Example P-3],6.1%

# Biological target: human melanin concentrating hormone receptor (MCHR1) (Homo sapiens (Human), UniProt Q99705, A5T/E4Q)
# Sequence (Q99705 whole entry E4Q/A5T): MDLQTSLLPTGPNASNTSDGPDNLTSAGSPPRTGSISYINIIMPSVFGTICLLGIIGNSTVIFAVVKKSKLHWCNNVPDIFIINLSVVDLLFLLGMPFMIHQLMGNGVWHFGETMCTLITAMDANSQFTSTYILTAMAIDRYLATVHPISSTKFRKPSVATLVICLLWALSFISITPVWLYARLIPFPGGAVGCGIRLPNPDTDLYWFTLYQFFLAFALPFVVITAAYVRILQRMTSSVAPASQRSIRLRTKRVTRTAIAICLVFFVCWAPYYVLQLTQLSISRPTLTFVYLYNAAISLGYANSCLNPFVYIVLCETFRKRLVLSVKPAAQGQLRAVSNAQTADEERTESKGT
# Assay: Radioligand binding assay for assessment of MCHR1 activity
# Details: competition with [Phe13,[125I]Tyr19]-MCH; membranes of HEK-293 cells expressing mutated hMCHR1
# Procedure: Compounds of Formula I were initially characterized in an in vitro binding assay to determine their Ki or ability to antagonize binding of a peptide agonist to the human melanin concentrating hormone receptor (MCHR1). Representative compounds of the present invention had the following Ki values:
# Membranes from stably transfected HEK-293 cells expressing a mutated (E4Q, AST) hMCHRI receptor were prepared by dounce homogenization and differential centrifugation. Binding experiments were carried out with 0.5-1.0 ug of membrane protein incubated in a total of 0.2 ml in 25 mM HEPES (pH 7.4) with 10 mM MgCl2, 2 mM EGTA, and 0.1% BSA (Binding Buffer) for 90 min. For competition binding assays, reactions were carried out in the presence of with 0.06-0.1 nM [Phe^13, [^125I]Tyr^19]-MCH and increasing concentrations of unlabeled test molecules. Reactions were terminated by rapid vacuum filtration over 96 well-GFC Unifilter plates pre-coated with 0.075 ml binding buffer containing 1% BSA, and washed 3 times with 0.4 ml of Phospho-buffered Saline (pH 7.4) containing 0.01% TX-100. Filters were dried; 0.05 ml microscint 20 was added to each well and radioactivity was subsequently quantified by scintillation counting on a TOPCOUNT® microplate scintillation counter (Packard). Inhibitory constants were determined by nonlinear least squares analysis using a four parameter logistic equation.
row,Ki,SMILES
1,2340 nM,COc1cc(-n2ccc(COc3ccccc3)cc2=O)ccc1OCC(C)(C)O [Example A-6]
2,29 nM,COc1cc(-n2ccc(CSc3ccc(Cl)cc3)cc2=O)ccc1OCC(C)(C)O [Example A-29]
3,500 nM,COc1cc(-n2ccc(CNc3ccc(Cl)cc3)cc2=O)ccc1OCC(C)(C)O [Example A-33]
4,7 nM,COc1cc(-n2ccc(-c3ccc(C(F)(F)F)cc3)cc2=O)ccc1OCC(C)(C)O [Example B-2]
5,3 nM,COc1cc(-n2ccc(-c3ccc(OC(F)(F)F)cc3)cc2=O)ccc1OCCO [Example C-1]
6,4 nM,"COc1cc(-n2ccc(SCc3ccc(Cl)cc3)cc2=O)ccc1OCC(C)(C)O [Example D-4, 4-(4-Chlorobenzylthio)-1-(4-(2-hydroxy-2-methylpropoxy)-3-methoxyphenyl)pyridin-2(1H)-one]"
